The first experiment deals with wild-type human cardiac sodium channel, hNav1.5 (Homo sapiens, UniProt Q14524). As to the kind of experiment: Late INa screening assay (automated whole cell patch clamp, PatchXpress). It is filed as cell-based. Conditions: compound at 1 μM; HEK293 cells expressing hNav1.5; late INa generated with 10 μM Tefluthrin (or 50 nM ATX II); read-out: LateINa_1 uM (percent block of late INa). A digest of the protocol:
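Late sodium current through wild-type human hNav1.5 stably expressed in HEK293 cells (no beta subunits) was recorded by automated whole-cell patch clamp on a PatchXpress 7000A at 24-27° C. Late INa was induced with 10 μM Tefluthrin or 50 nM ATX II. Cells were stepped from −120 mV to −20 mV for 250 ms at 0.1 Hz, and percent block was normalized to current in Na-free extracellular solution.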
A general note: In patch-clamp work, channel activity is measured electrically.
wild-type human cardiac sodium channel, hNav1.5, sequence (Q14524 whole entry): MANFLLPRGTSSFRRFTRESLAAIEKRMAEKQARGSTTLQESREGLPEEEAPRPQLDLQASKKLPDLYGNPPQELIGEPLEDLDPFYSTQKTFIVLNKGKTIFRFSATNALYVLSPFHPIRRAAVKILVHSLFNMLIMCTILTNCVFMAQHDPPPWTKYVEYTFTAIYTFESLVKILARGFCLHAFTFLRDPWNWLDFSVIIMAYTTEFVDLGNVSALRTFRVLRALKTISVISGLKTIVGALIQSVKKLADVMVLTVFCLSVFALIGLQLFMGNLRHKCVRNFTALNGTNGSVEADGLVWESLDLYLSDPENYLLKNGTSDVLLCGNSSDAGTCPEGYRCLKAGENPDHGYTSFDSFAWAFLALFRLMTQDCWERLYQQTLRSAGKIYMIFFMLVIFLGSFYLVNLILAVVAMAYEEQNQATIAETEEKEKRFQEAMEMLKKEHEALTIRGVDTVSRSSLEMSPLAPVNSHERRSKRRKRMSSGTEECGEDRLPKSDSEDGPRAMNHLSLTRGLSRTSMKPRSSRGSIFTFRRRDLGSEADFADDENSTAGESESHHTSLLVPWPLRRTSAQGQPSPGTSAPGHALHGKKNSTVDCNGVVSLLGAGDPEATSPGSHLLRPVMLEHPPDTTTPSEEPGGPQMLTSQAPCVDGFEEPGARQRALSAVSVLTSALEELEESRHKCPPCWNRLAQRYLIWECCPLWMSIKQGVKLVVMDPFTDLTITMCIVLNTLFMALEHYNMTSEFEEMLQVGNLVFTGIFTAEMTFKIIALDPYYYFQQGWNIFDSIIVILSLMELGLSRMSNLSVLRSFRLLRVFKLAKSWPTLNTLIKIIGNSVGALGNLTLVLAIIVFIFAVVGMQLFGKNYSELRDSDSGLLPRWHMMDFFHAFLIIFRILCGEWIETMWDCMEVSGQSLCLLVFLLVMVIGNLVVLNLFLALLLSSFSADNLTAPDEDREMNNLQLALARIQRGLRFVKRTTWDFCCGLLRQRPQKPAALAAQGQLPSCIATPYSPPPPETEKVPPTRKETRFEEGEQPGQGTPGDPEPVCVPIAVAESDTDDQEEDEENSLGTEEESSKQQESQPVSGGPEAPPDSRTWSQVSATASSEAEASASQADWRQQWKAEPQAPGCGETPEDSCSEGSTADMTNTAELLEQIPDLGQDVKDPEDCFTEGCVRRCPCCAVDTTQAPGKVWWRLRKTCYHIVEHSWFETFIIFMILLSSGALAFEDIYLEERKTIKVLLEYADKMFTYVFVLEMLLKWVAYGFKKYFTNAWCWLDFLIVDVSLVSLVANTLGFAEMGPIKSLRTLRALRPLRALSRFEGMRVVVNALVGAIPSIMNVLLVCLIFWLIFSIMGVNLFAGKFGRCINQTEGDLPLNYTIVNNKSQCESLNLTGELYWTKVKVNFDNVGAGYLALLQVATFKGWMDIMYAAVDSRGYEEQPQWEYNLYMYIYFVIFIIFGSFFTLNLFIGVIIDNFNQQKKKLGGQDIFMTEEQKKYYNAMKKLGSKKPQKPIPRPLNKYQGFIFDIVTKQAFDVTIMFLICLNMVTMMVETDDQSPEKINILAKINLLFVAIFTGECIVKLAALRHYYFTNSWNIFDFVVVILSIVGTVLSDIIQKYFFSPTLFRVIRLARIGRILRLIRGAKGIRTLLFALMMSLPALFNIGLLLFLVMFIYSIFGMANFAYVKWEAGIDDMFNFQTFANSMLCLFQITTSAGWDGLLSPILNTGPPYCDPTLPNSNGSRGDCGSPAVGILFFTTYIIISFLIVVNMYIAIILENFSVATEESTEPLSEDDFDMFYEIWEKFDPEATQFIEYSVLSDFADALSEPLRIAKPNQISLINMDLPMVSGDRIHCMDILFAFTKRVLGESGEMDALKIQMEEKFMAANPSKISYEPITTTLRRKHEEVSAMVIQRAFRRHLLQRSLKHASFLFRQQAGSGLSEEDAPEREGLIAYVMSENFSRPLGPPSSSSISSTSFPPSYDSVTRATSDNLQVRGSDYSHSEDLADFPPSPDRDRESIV
With `FC(F)(F)COc1ccc(-c2ccc3nnc(C(F)(F)OCc4cc(-c5ccccc5)on4)n3c2)cn1` [BHN-324, 3-{difluoro[(5-phenyl-1,2-oxazol-3-yl)methoxy]methyl}-6-[6-(2,2,2-trifluoroethoxy)pyridin-3-yl][1,2,4]triazolo[4,3-a]pyridine], the inhibition at 1 µM was found to be 46.3%. Regarding `FC(F)(F)Oc1ccc(-c2ccc3nnc(C(F)(F)OCc4ccccc4-c4ccc(C5CC5)nc4)n3c2)cc1` [BHN-325, 3-[{[2-(6-cyclopropylpyridin-3-yl)benzyl]oxy}(difluoro)methyl]-6-[4-(trifluoromethoxy)phenyl][1,2,4]triazolo[4,3-a]pyridine], the inhibition at 1 µM was determined as 68.3%. With `FC(F)(F)Oc1ccc(-c2ccc3nnc(C(F)(F)OCc4cc(-c5ccccc5Cl)on4)n3c2)cc1` [BHN-326, 3-[{[5-(2-chlorophenyl)-1,2-oxazol-3-yl]methoxy}(difluoro)methyl]-6-[4-(trifluoromethoxy)phenyl][1,2,4]triazolo[4,3-a]pyridine], the inhibition at 1 µM worked out at 52.4%.

For `FC(F)(F)Oc1ccc(-c2ccc3nnc(C(F)(F)OCc4ccccc4-c4cccnc4)n3c2)cc1` [BHN-327, 3-(difluoro{[2-(pyridin-3-yl)benzyl]oxy}methyl)-6-[4-(trifluoromethoxy)phenyl][1,2,4]triazolo[4,3-a]pyridine], the inhibition at 1 µM is 54.2%. For `FC(F)(F)Oc1ccc(-c2ccc3nnc(C(F)(F)OCc4ccccc4-n4cccn4)n3c2)cc1` [BHN-328, 3-(difluoro{[2-(1H-pyrazol-1-yl)benzyl]oxy}methyl)-6-[4-(trifluoromethoxy)phenyl][1,2,4]triazolo[4,3-a]pyridine], the inhibition at 1 µM came to 70.9%.

The same experiment, now with this note: compound at 10 μM; HEK293 cells expressing hNav1.5; late INa generated with 10 μM Tefluthrin (or 50 nM ATX II); read-out: LateINa_10 uM (percent block of late INa).
On to `CCNc1nnc2ccc(-c3ccc(OC(F)(F)F)cc3)cn12` [BHN-331, N-ethyl-6-[4-(trifluoromethoxy)phenyl][1,2,4]triazolo[4,3-a]pyridin-3-amine], for which the inhibition at 10 µM is 38.2%. Take `FC(F)(F)c1nnc2ccc(-c3ccc(Oc4ccccc4)cc3)cn12` [BHN-332, 6-(4-phenoxyphenyl)-3-(trifluoromethyl)[1,2,4]triazolo[4,3-a]pyridine]: the inhibition at 10 µM stood at 83.5%. The same measure, in the same setting: with `Cc1nnc2ccc(-c3ccc(Oc4ccccc4)cc3)cn12` [BHN-333, 3-methyl-6-(4-phenoxyphenyl)[1,2,4]triazolo[4,3-a]pyridine] the figure was 61.6%; with `CCNc1nnc2ccc(-c3ccc(Oc4ccccc4)cc3)cn12` [BHN-334, N-ethyl-6-(4-phenoxyphenyl)[1,2,4]triazolo[4,3-a]pyridin-3-amine], 40.6%. In the case of `FC(F)(F)Oc1ccc(-c2ccc3nnc(C(F)(F)F)n3c2)cc1` [BHN-335, 6-[4-(trifluoromethoxy)phenyl]-3-(trifluoromethyl)[1,2,4]triazolo[4,3-a]pyridine], the inhibition at 10 µM came out at 87.7%. The same measure, in the same setting: under `c1ccc(Oc2cccc(-c3ccc4ncnn4c3)c2)cc1` [BHN-347, 6-(3-phenoxyphenyl)[1,2,4]triazolo[1,5-a]pyridine] stands 73.6%.

As for `Cc1nc2ccc(-c3cccc(Oc4ccccc4)c3)cn2n1` [BHN-348, 2-methyl-6-(3-phenoxyphenyl)[1,2,4]triazolo[1,5-a]pyridine], the inhibition at 10 µM came to 65.7%. On the same count and under the same terms, under `Cc1cc(-c2ccc(Oc3ccccc3)cc2)cn2ncnc12` [BHN-349, 8-methyl-6-(4-phenoxyphenyl)[1,2,4]triazolo[1,5-a]pyridine] stands 65.1%; under `Cc1c(-c2ccc(C(F)(F)F)cc2)ccc2ncnn12` [BHN-350, 5-methyl-6-[4-(trifluoromethyl)phenyl][1,2,4]triazolo[1,5-a]pyridine], 44.5%.
